{"source": "patent US20240415819A1", "about": "“MACROCYCLIC COMPOUNDS AS PROTEASOME SUBUNIT BETA TYPE-5 INHIBITORS” (Lead Discovery Center GmbH, priority 2021, published 2024)", "key": {"[1]": {"tested_on": "A549 (human lung carcinoma cell line)", "assay": "Glo assay of A549 cells (Table 3; ProteasomeGlo plating scheme)", "assay_type": "cell-based", "details": "Homo sapiens", "procedure,_shortened": "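Compound treatment lasts 105 minutes at 37° C. under 5% CO2. Suc-LLVY-Glo substrate premixed with detection reagent (60 min at room temperature) is then added directly to the cells, and luminescence after 10-15 min in the dark gives the IC50 in nM.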"}, "HT-29 cells": {"tested_on": "HT-29 cells", "assay": "CellTiter-Glo luminescent cell viability assay with HT-29 cells (72h incubation)", "assay_type": "cell-based, human", "details": "Homo sapiens, HT-29, HT29 cells, read-out: CTG HT29", "procedure,_shortened": "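Viability read as CellTiter-Glo luminescence after 72 h compound exposure, with 10 μM staurosporine and DMSO as control wells. Seeding 400 cells per well, compound added 24 h post-plating; IC50 from curve fitting.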"}, "[2]": {"details": "A549 cells, read-out: PGLo A549"}}, "note": "Like-named read-outs stand apart in the source and are kept apart here."}
{"molecule": "Cc1ccc2cc1CNC(=O)[C@H](CCc1ccccc1)NC(=O)[C@@H](NC(=O)OCc1ccccc1)CC(=O)N1CCC[C@H](CCO2)C1", "note": "[Compound 292, benzyl ((13R,9S,12S)-5^4-methyl-8,11,14-trioxo-9-phenethyl-4-oxa-7,10-diaza-1(3,1)-piperidina-5(1,3)-benzenacyclotetradecaphane-12-yl)carbamate]", "values": [{"measurement": "IC50", "setting": "[1]; [2]", "value": "< 100", "unit": "nM"}, {"measurement": "IC50", "setting": "HT-29 cells", "value": "< 100", "unit": "nM"}]}
{"molecule": "CCC(C(=O)N[C@H]1CC(=O)N2CCCC(CCOc3ccc(C)c(c3)CNC(=O)[C@H](CCc3ccccc3)NC1=O)C2)c1ccc(OC)c(OC)c1", "note": "(stereo partly drawn) [Compound 64, 2-(3,4-dimethoxyphenyl)-N-((9S,12S)-5^4-methyl-8,11,14-trioxo-9-phenethyl-4-oxa-7,10-diaza-1(3,1)-piperidina-5(1,3)-benzenacyclotetradecaphane-12-yl)butanamide]", "values": [{"measurement": "IC50", "setting": "[1]; [2]", "value": "< 100", "unit": "nM"}, {"measurement": "IC50", "setting": "HT-29 cells", "value": "< 100", "unit": "nM"}]}
{"molecule": "Cc1ccc2cc1CNC(=O)[C@H](CCc1ccccc1)NC(=O)[C@@H](NC(=O)OCC1(C)COC1)CC(=O)N1CCCC(CCO2)C1", "note": "(stereo partly drawn) [Compound 293, (3-methyloxetan-3-yl)methyl ((9S,12S)-5^4-methyl-8,11,14-trioxo-9-phenethyl-4-oxa-7,10-diaza-1(3,1)-piperidina-5(1,3)-benzenacyclotetradecaphane-12-yl)carbamate]", "values": [{"measurement": "IC50", "setting": "[1]; A549, read-out: PGLo A549 [nM]", "value": "< 100", "unit": "nM"}, {"measurement": "IC50", "setting": "HT-29 cells", "value": "< 100", "unit": "nM"}]}
{"molecule": "CC(=O)N[C@H]1CC(=O)N2CCCC(CCOc3ccc(C)c(c3)CNC(=O)C(c3cnn(Cc4ccccc4)c3)NC1=O)C2", "note": "(stereo partly drawn) [Compound 565, N-((12S)-9-(1-benzyl-1H-pyrazol-4-yl)-5^4-methyl-8,11,14-trioxo-4-oxa-7,10-diaza-1(3,1)-piperidina-5(1,3)-benzenacyclotetradecaphane-12-yl)acetamide]", "values": [{"measurement": "IC50", "setting": "[1]; [2]", "value": "< 100", "unit": "nM"}, {"measurement": "IC50", "setting": "HT-29 cells", "value": "< 100", "unit": "nM"}]}
{"molecule": "Cc1ccc2cc1CNC(=O)[C@H](CCc1ccccc1)NC(=O)[C@H](NC(=O)OCc1ccccc1)CC(=O)N1CCC[C@H](CCO2)C1", "note": "[Compound 291, benzyl ((13R,9S,12R)-5^4-methyl-8,11,14-trioxo-9-phenethyl-4-oxa-7,10-diaza-1(3,1)-piperidina-5(1,3)-benzenacyclotetradecaphane-12-yl)carbamate]", "values": [{"measurement": "IC50", "setting": "[1]; [2]", "value": "1000 to 5000", "unit": "nM"}, {"measurement": "IC50", "setting": "HT-29 cells", "value": "< 100", "unit": "nM"}]}
